In PubChem BioAssay (NCI):
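Cells were grown in 96-well plates and exposed to each compound for 48 hours at five concentrations; endpoints were interpolated linearly between bracketing concentrations, or set to the highest concentration if not reached. At the GI50, growth is halved. TGI marks complete inhibition of growth.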

What was measured:
Assay in all cases: inhibition of tumour cell growth, NCI panel, 48 h
[1] = test system: SN12C renal
[2] = test system: MALME-3M melanoma
[3] = test system: TK-10 renal
[4] = test system: CCRF-CEM leukemia
[5] = test system: M14 melanoma
[6] = test system: HS 578T breast
[7] = test system: SK-MEL-5 melanoma
[8] = test system: NCI-H522 lung
[9] = test system: COLO 205 colon
[10] = test system: IGROV1 ovarian
[11] = test system: U251 CNS
[12] = test system: NCI-H460 lung
[13] = test system: HOP-62 NSCLC
[14] = test system: RXF 393 renal
[15] = test system: K-562 leukemia
[16] = test system: EKVX NSCLC
[17] = test system: LOX IMVI melanoma
[18] = test system: DU-145 prostate
[19] = test system: SNB-75 CNS
[20] = test system: HCT-15 colon
[21] = test system: MDA-MB-435
[22] = test system: KM12 colon
[23] = test system: T-47D breast
[24] = test system: SW-620 colon
[25] = test system: BT-549 breast
[26] = test system: HL-60(TB) leukemia
[27] = test system: HCT-116 colon
[28] = test system: SF-539 CNS
[29] = test system: OVCAR-5 ovarian
[30] = test system: OVCAR-4 ovarian
[31] = test system: SF-295 CNS
[32] = test system: PC-3 prostate
[33] = test system: SK-MEL-2 melanoma
[34] = test system: SK-OV-3 ovarian
[35] = test system: 786-0 renal
[36] = test system: NCI-H23 lung
[37] = test system: NCI-H226 lung
[38] = test system: SR leukemia
[39] = test system: UACC-257 melanoma
[40] = test system: HCC-2998 colon
[41] = test system: A549 NSCLC
[42] = test system: SF-268 CNS
[43] = test system: HT29 colon
[44] = test system: OVCAR-8 ovarian
[45] = test system: MCF7 breast
[46] = test system: A498 renal
[47] = test system: OVCAR-3 ovarian
[48] = test system: SK-MEL-28 melanoma
[49] = test system: MDA-MB-231 breast
[50] = test system: SNB-19 CNS
[51] = test system: UO-31 renal
[52] = test system: NCI/ADR-RES ovarian
[53] = test system: UACC-62 melanoma
[54] = test system: MOLT-4 leukemia
[55] = test system: ACHN renal
[56] = test system: CAKI-1 renal
[57] = test system: RPMI-8226 leukemia
[58] = test system: HOP-92 NSCLC

SMILES: O=CC(OC(=O)c1ccccc1)C(OC(=O)c1ccccc1)C(COC(c1ccccc1)(c1ccccc1)c1ccccc1)OC(=O)c1ccccc1 (configuration not stated)
- GI50 [1]: 17.4 µM
- TGI [1]: 47.9 µM
- GI50 [2]: 30.3 µM
- TGI [2]: 95.2 µM
- GI50 [3]: 20.4 µM
- TGI [3]: 50.3 µM
- GI50 [4]: 2.21 µM
- TGI [4]: 7.26 µM
- GI50 [5]: 14 µM
- TGI [5]: 30.3 µM
- GI50 [6]: 33.2 µM
- TGI [6]: > 100 µM
- GI50 [7]: 15.4 µM
- TGI [7]: 30.3 µM
- GI50 [8]: 4.72 µM
- TGI [8]: 18.7 µM
- GI50 [9]: 11.8 µM
- TGI [9]: 25.4 µM
- GI50 [10]: 12.4 µM
- TGI [10]: 37.7 µM
- GI50 [11]: 7.51 µM
- TGI [11]: 20.2 µM
- GI50 [12]: 17.1 µM
- TGI [12]: 37.8 µM
- GI50 [13]: 18.3 µM
- TGI [13]: 32.6 µM
- GI50 [14]: 4.11 µM
- TGI [14]: 21.1 µM
- GI50 [15]: 8.09 µM
- TGI [15]: 27.4 µM
- GI50 [16]: 19.6 µM
- TGI [16]: 61.5 µM
- GI50 [17]: 11 µM
- TGI [17]: 27.3 µM
- GI50 [18]: 15.3 µM
- TGI [18]: 28.6 µM
- GI50 [19]: 10.2 µM
- TGI [19]: 22.9 µM
- GI50 [20]: 16.6 µM
- TGI [20]: 43.1 µM
- GI50 [21]: 12.8 µM
- TGI [21]: 46.7 µM
- GI50 [22]: 14.3 µM
- TGI [22]: 31 µM
- GI50 [23]: 4.65 µM
- TGI [23]: 22.7 µM
- GI50 [24]: 5.13 µM
- TGI [24]: 20.7 µM
- GI50 [25]: 23.4 µM
- TGI [25]: > 100 µM
- GI50 [26]: 3.25 µM
- TGI [26]: 20.7 µM
- GI50 [27]: 6.21 µM
- TGI [27]: 19 µM
- GI50 [28]: 5.28 µM
- TGI [28]: 19.4 µM
- GI50 [29]: 21.6 µM
- TGI [29]: 43.9 µM
- GI50 [30]: 17.5 µM
- TGI [30]: 47.1 µM
- GI50 [31]: 23.8 µM
- TGI [31]: 73.5 µM
- GI50 [32]: 9.64 µM
- TGI [32]: 24.7 µM
- GI50 [33]: 18.4 µM
- TGI [33]: 50.4 µM
- GI50 [34]: 21.3 µM
- TGI [34]: 48.2 µM
- GI50 [35]: 20 µM
- TGI [35]: 41 µM
- GI50 [36]: 15.4 µM
- TGI [36]: 34.6 µM
- GI50 [37]: 18.9 µM
- TGI [37]: 64.4 µM
- GI50 [38]: 1.3 µM
- TGI [38]: 4.03 µM
- GI50 [39]: 13.9 µM
- TGI [39]: 34.4 µM
- GI50 [40]: 17.4 µM
- TGI [40]: 31.5 µM
- GI50 [41]: 22.1 µM
- TGI [41]: 61.7 µM
- GI50 [42]: 12.7 µM
- TGI [42]: 32.3 µM
- GI50 [43]: 11.7 µM
- TGI [43]: 26.3 µM
- GI50 [44]: 4.76 µM
- TGI [44]: 54.1 µM
- GI50 [45]: 6.38 µM
- TGI [45]: 23.7 µM
- GI50 [46]: 15.5 µM
- TGI [46]: 29.7 µM
- GI50 [47]: 11 µM
- TGI [47]: 24.1 µM
- GI50 [48]: 13.5 µM
- TGI [48]: 28.3 µM
- GI50 [49]: 21.6 µM
- TGI [49]: > 100 µM
- GI50 [50]: 15.3 µM
- TGI [50]: 28.6 µM
- GI50 [51]: 10.8 µM
- TGI [51]: 31.2 µM
- GI50 [52]: 19.3 µM
- TGI [52]: 45.4 µM
- GI50 [53]: 14.5 µM
- TGI [53]: 44.1 µM
- GI50 [54]: 2.64 µM
- TGI [54]: 11.7 µM
- GI50 [55]: 11.4 µM
- TGI [55]: 24 µM
- GI50 [56]: 25.1 µM
- TGI [56]: 72.2 µM

SMILES: Cc1c2cnccc2c(C)c2c1c1cc(O)ccc1n2C(C)C
- GI50 [1]: 0.647 µM
- TGI [1]: 6.06 µM
- GI50 [2]: 0.756 µM
- TGI [2]: 2.58 µM
- GI50 [3]: 3.31 µM
- TGI [3]: 8.55 µM
- GI50 [4]: 1.33 µM
- TGI [4]: 5.81 µM
- GI50 [5]: 0.678 µM
- TGI [5]: 2.34 µM
- GI50 [6]: 1.23 µM
- TGI [6]: 4.55 µM
- GI50 [7]: 1.35 µM
- TGI [7]: 3 µM
- GI50 [8]: 0.475 µM
- TGI [8]: 2.54 µM
- GI50 [9]: 2.36 µM
- TGI [9]: 6.02 µM
- GI50 [11]: 1.77 µM
- TGI [11]: 6.51 µM
- GI50 [57]: 1.05 µM
- TGI [57]: 3.19 µM
- GI50 [12]: 0.361 µM
- TGI [12]: 1.56 µM
- GI50 [13]: 1.6 µM
- TGI [13]: 4.74 µM
- GI50 [14]: 0.935 µM
- TGI [14]: 2.39 µM
- GI50 [15]: 1.02 µM
- TGI [15]: 5.6 µM
- GI50 [16]: 0.846 µM
- TGI [16]: 2.41 µM
- GI50 [17]: 0.47 µM
- TGI [17]: 1.9 µM
- GI50 [18]: 0.688 µM
- TGI [18]: 7.06 µM
- GI50 [19]: 1.2 µM
- TGI [19]: 2.46 µM
- GI50 [20]: 0.44 µM
- TGI [20]: 4.2 µM
- GI50 [21]: 1.04 µM
- TGI [21]: 2.29 µM
- GI50 [22]: 0.57 µM
- TGI [22]: 9.87 µM
- GI50 [23]: 1.98 µM
- TGI [23]: 6.27 µM
- GI50 [24]: 0.408 µM
- TGI [24]: 3.27 µM
- GI50 [25]: 1.11 µM
- TGI [25]: 2.73 µM
- GI50 [26]: 0.42 µM
- TGI [26]: 3.13 µM
- GI50 [27]: 0.964 µM
- TGI [27]: 6.56 µM
- GI50 [28]: 1.32 µM
- TGI [28]: 2.9 µM
- GI50 [29]: 2.42 µM
- TGI [29]: 9.46 µM
- GI50 [30]: 1.31 µM
- TGI [30]: 7.38 µM
- GI50 [31]: 1.7 µM
- TGI [31]: 5.35 µM
- GI50 [32]: 1.12 µM
- TGI [32]: 3.71 µM
- GI50 [33]: 0.797 µM
- TGI [33]: 2.58 µM
- GI50 [34]: 0.709 µM
- TGI [34]: 5.55 µM
- GI50 [35]: 1.7 µM
- TGI [35]: 4.53 µM
- GI50 [36]: 0.721 µM
- TGI [36]: 3.83 µM
- GI50 [37]: 2.82 µM
- TGI [37]: 11.6 µM
- GI50 [40]: 1.55 µM
- TGI [40]: 4.94 µM
- GI50 [41]: 0.744 µM
- TGI [41]: 8.17 µM
- GI50 [42]: 1.18 µM
- TGI [42]: 3.62 µM
- GI50 [43]: 3.11 µM
- TGI [43]: 11.5 µM
- GI50 [58]: 2.11 µM
- TGI [58]: 7.28 µM
- GI50 [44]: 0.972 µM
- TGI [44]: 6.18 µM
- GI50 [45]: 1.37 µM
- TGI [45]: 4.82 µM
- GI50 [46]: 2 µM
- TGI [46]: 13.3 µM
- GI50 [47]: 2.04 µM
- TGI [47]: 6.86 µM
- GI50 [48]: 1.23 µM
- TGI [48]: 2.96 µM
- GI50 [49]: 1.51 µM
- TGI [49]: 7.58 µM
- GI50 [50]: 1.76 µM
- TGI [50]: 10.9 µM
- GI50 [51]: 0.785 µM
- TGI [51]: 5.21 µM
- GI50 [52]: 1.14 µM
- TGI [52]: 4.23 µM
- GI50 [53]: 1.37 µM
- TGI [53]: 4.28 µM
- GI50 [54]: 0.289 µM
- TGI [54]: 1.26 µM
- GI50 [55]: 0.285 µM
- TGI [55]: 1.77 µM
- GI50 [56]: 0.388 µM
- TGI [56]: 5.24 µM
